Reference: patent US20200261596A1, “Therapeutic Particles with Peptide Boronic Acid or Boronate Ester Compounds and Methods of Making and Using Same” (Pfizer Inc., priority 2016, published 2020)
Converted amounts (≈) assume the structure as drawn. Where two headings read alike, the source gives them in different places.

Experiments:
[1] = Bortezomib solubility; assay type: physicochemical; details: read-out: BTZ solubility
[2] = Pharmacologic kinetic profile in rats (plasma levels by LCMS); assay type: in vivo, Sprague-Dawley rats; details: single intravenous dose of 0.1 mg/kg, FIG. 13A
Method: Rats (male Sprague Dawley, approximately 300 g with jugular cannulae are given a single intravenous dose of 0.1 mg/kg free drug or passively targeted nanoparticles (PTNP) encapsulating drug at time t=0. At various times after dosing, blood samples are collected from the jugular cannulae into tubes containing lithium heparin, and plasma is prepared. Plasma levels are determined by extraction of the drug from plasma followed by LCMS analysis.

solubility ([1]; 0.5% sodium cholate, 2% BA, 4% EA in water (water phase), aqueous with cosolvent or surfactant or cyclodextrin, Water phase: 0.5% sodium cholate, 2% BA, 4% EA in water): 1300 µg/mL (≈ 3.38 mM) | solubility ([1]; benzyl alcohol:ethyl acetate 21:79 (w/w %) (oil phase), organic solvent or mixture, Oil phase: Benzyl alcohol:Ethyl acetate (BA:EA = 21:79, w/w %)): > 93000 µg/mL | solubility ([1]; water (quench phase), water, Quench phase: water): 1100 µg/mL (≈ 2.86 mM) | circulation time / plasma clearance [2]: rapidly cleared from the plasma
Compound: CC(C)C[C@H](NC(=O)[C@H](Cc1ccccc1)NC(=O)c1cnccn1)B(O)O [Bortezomib, bortezomib]
